Measured values published in patent US9642856B2, “Treatment for pancreatic cancer” (University Health Network, priority 2013, dated 2017).

Tests used:
BxPC-3 cell line = assay: Growth inhibition (GI50) assay, SRB, BxPC-3; format: cell-based; details: Homo sapiens, 120 h, BxPC-3 (KRas wild-type, TP53 mutant, SMAD4 homozygous deletion), 5 days
Excerpt: (§1) BxPC-3 and PANC-1 cell lines were obtained from American Type Culture Collection (ATCC, Manassas, Va.) and maintained according to the supplier's instructions. Short tandem repeat (STR) profiling was used to verify authenticity of the cell lines. Sixteen STR loci were simultaneously amplified in a multiplex PCR reaction (The Hospital for Sick Children, Toronto, Canada), and the ATCC database was used for comparison, where possible. Cell lines were routinely tested for mycoplasma and used at low passage numbers (<15).
(§2) Cells were seeded at 3000 per 80 μL, into 96-well plates according to cell growth rate 24 hours before compound overlay and cultured at 37° C. and 5% CO2. Compounds were prepared as 10 mM stocks in 100% DMSO. […] After 5 days, cell growth in each well was assessed by the sulforhodamine B (SRB) assay measuring total protein content. […] The SRB was solubilized with 100 μL of 10 mM Tris pH 10.5 per well, and absorbance was read at 570 nm using a SpectraPlus microplate reader (Molecular Devices Corporation). SRB absorbance values were adjusted by subtracting the average of the baseline readings from untreated cells assessed one day after cell seeding. The percentage (%) of relative inhibition of cell growth was calculated by comparing to DMSO-treated cells. GI50s were calculated using GraphPad PRISM software (GraphPad Software Inc., San Diego, Calif.).

PANC-1 cell line = assay: Growth inhibition (GI50) assay, SRB, PANC-1; format: cell-based; details: Homo sapiens, 120 h, PANC-1 (KRas mutant, TP53 mutant, CDKN2A homozygous deletion, SMAD4 wild-type), 5 days
Excerpt: as §1, §2

[1] = test system: patient-derived pancreatic xenograft models; assay: Orthotopic patient-derived pancreatic xenograft models, mono-therapy; format: in vivo, NOD/SCID mice
Excerpt: 6 orthotopically implanted patient-derived pancreatic xenograft models with varying growth rates and levels of tumor hypoxia were used in order to investigate the efficiency of the Compound II as a mono-therapy or in combination with Gemcitabine.
The patient-derived pancreatic xenograft models were established by attaching a piece of the patient tumor on the pancreas of 4-5 week old Non-obese diabetic (NOD)/Severe combined immunodeficiency (SCID) mice. The xenograft models closely resemble the morphology of the patient specimen and represent the range of tumor morphologies described in pancreatic cancer patients.
Tumor volume was evaluated by palpation and animals were randomized into treatment groups. Animals were treated with Compound II using a daily dose of 7.5 mg/kg by oral gavage for 21 days for experiments evaluating activity as a mono-therapy, or with 13.5 mg/kg according to a 2-day-on-5-days-off schedule in combination bi-weekly 100 mg/kg Gemcitabine for 21 days.
Tumor weight after completion of the treatment and overall survival were evaluated. Immunofluorescence (IF) staining of xenograft sections was used to evaluate tumor hypoxia and proliferation. The impact of Compound II treatment on survival was examined in 6 animals per group. Mice were followed until the animals either died or had to be euthanized due to oversized tumors.

[2] = test system: OCIP51 xenograft tumor initiating cells; assay: Limiting dilution assay for tumor initiating cells (TIC); format: in vivo, NOD/SCID mice; details: 52 mg/kg, tumors harvested 12 h after treatment, preliminary results
Experimental: FIG. 2(C) is a schematic overview of the limiting dilution assay. Briefly, xenograft tumors were grown to a diameter of approximately 1 cm and treated with 52 mg/kg Compound II and tumors harvested 12 h after treatment. Excised tumors were mechanically minced and a single cell suspension prepared using a DNAse, Collagenase and Protease cocktail. A sample of the single cell suspension was stained for mouse CD31-FITC and H2K-FITC to establish the mouse cell content. Cells were counted using a haemocytometer and the human content was calculated. 3-6 dilutions of human cells per sample were injected into the flank of NOD/SCID mice. 3 mice were injected into both flanks per dilution. Tumor take rate was observed over the course of 6 month. Tumor initiating frequency was calculated from using the L-Calc software. […] The remaining 3 xenograft models have been injected for the dilutions.

OCIP110 tumors = assay: OCIP110 orthotopic xenograft, Compound II alone or with Cisplatin; format: in vivo, SCID mice; details: Compound II 10 mg/kg 2-on/5-off schedule, 21 days
Experimental: OCIP110 tumors were implanted orthotopically onto the pancreas of 4-5 week old SCID mice. Tumor volume was evaluated by palpation and animals were randomized into treatment groups. Animals were treated with either Compound II on a 2-on/5-off schedule with 10 mg/kg, a weekly dose of 4 mg/kg Cisplatin or the combination treatment for 21 days. Tumor weight was evaluated when tumors were excised at the end of the treatment.

COc1ccc2c(c1)[C@]1(C[C@H]1c1ccc3c(/C=C/c4ccc(CN5CCOCC5)cc4)n[nH]c3c1)C(=O)N2C [Compound II]
GI50 (BxPC-3 cell line): 15 nM
GI50 (PANC-1 cell line): 25 nM
Tumor weight after completion of the treatment ([1]; 7.5 mg/kg daily by oral gavage for 21 days, mono-therapy, 6 xenograft models): significantly reduced tumor weight in 4 of the 6 tested patient-derived pancreatic xenograft models
medium survival ([1]; OCIP51 (highly hypoxic, fast growing) model, 7.5 mg/kg daily oral, 21 days, vehicle 54 days): 103 days
overall survival ([1]; mono-therapy for 21 days, responsive models): increase in overall survival in a number of responsive models
response to treatment versus tumor hypoxia ([1]; mono-therapy, highly hypoxic versus medium or low hypoxic models, preliminary results): strongest response to Compound II as a mono-therapy was observed in highly hypoxic models
Number of tumor initiating cells (TICs) [2]: reduced the number of TICs in OCIP51
Tumor weight at the end of the treatment (OCIP110 tumors): reduced tumor weight
